Tests used:
rat H3R = biological target: T1, rat H3R (Rattus norvegicus, UniProt Q9QYN8); experiment: In vitro binding to H3Rs, rat cerebral cortex membranes, [^3H]N-α-methylhistamine; conditions: 1 nM [^3H]N-α-methylhistamine, geometric mean, n = 3, read-out: Affinity for H3Rs Rat, IC50
T1 construct: Rat cerebral cortex and monkey frontal cortex were dissected; from tissue; host or cells: rat cerebral cortex membranes
Method: Rat cerebral cortex and monkey frontal cortex were dissected, homogenized with 50 mM Tris buffer (pH 7.4) containing 5 mM EDTA and Protease Inhibitor Cocktail Tablets (Roche Diagnostics, Indianapolis, IN) and centrifuged at 48,000×g for 15 min at 4 °C. The pellets were then suspended in binding buffer (50 mM Tris containing 5 mM EDTA, pH 7.4) and stored at −80 °C as membrane preparations.
The membrane preparations were thawed and incubated in the binding buffer containing 0.1 % bovine serum albumin, 1 nM [^3H]N-α-methylhistamine (PerkinElmer, Waltham, MA) with various concentrations of a dihydroquinolinone derivative (i.e., test compound) at 25 °C for 1 h. The reaction was terminated by rapid filtration through 96-well GF/C filter plates (PerkinElmer) presoaked with 0.5 % polyethyleneimine (Wako, Osaka, Japan). After washes with ice-cold binding buffer, the plates were dried and filled with Microscint-o (PerkinElmer). The radioactivity retained on the filters was counted using a TopCount NXT (PerkinElmer). Total and nonspecific radioligand binding was determined by reaction without and with 10 μM thioperamide and clobenpropit, respectively. The specific radioligand binding was then calculated by subtracting the nonspecific binding from the total binding. The IC50 value for inhibition of the radioligand binding by the test compound was determined using a nonlinear fit of the concentration-response curve for each test compound using SAS 9.2 (SAS Institute Inc., Cary, NC). Data were expressed as the geometric means of IC50 values from three independent experiments run in duplicate.

[1] = Ex vivo pharmacokinetic assessment in the rat brain using LC-MS/MS; conditions: 10 μg/kg intravenous, n = 3
Method: The rats were decapitated at 5, 15, 30, 60, and 120 min after intravenous administration of TASP0390136, TASP0390174, TASP0410426, TASP0410427, TASP0410457, or TASP0434988 at a dose of 10 μg/kg. The cerebellum and forebrain, including the medial prefrontal and cingulate cortices and anterior striatum, were dissected and homogenized with four volumes of distilled water. The homogenates were protein-precipitated with methanol/acetonitrile (1:9) and were centrifuged at 3974×g for 10 min at 4 °C. The resultant supernatants were injected into an HPLC (Shimadzu-20AD, Shimadzu, Kyoto, Japan) and a tandem mass spectrometer (API4000, AB SCIEX, Framingham, MA) using a Shim-pak XR-ODS column (3.0 × 30 mm, Shimadzu) at 50 °C. TASP0410457 was eluted with a mobile phase consisting of 10 mM of ammonium acetate/acetonitrile with a linear gradient at a flow rate of 1.3 mL/min, and ammonium formate instead of ammonium acetate was used for eluting the other five compounds. […] The eluted TASP0390136, TASP0390174, TASP0410426, TASP0410427, TASP0410457, and TASP0434988 were ionized using an electrospray interface and were detected using reaction monitoring of the transitions of m/z 395 to 91, 395 to 98, 413 to 98, 425 to 98, 408 to 138, and 407 to 138, respectively. A dihydroquinolinone compound (6-[(1-cyclobutylpiperidin-4-yl)oxy]-1-(3,5-difluorophenyl)-3,4-dihydroquinolin-2(1H)-one) was used as an internal standard for all assays. The lower qualification limit for TASP0410457 was 0.05 ng/g tissue, and the limit for the other five compounds was 0.15 ng/g tissue. Data were expressed as standardized uptake values (SUVs) calculated as follows: SUV=tissueconcentrationg/g×bodyweightg/injecteddoseg

H3R = biological target: T2, H3R (Rattus norvegicus, UniProt Q9QYN8); experiment: PET imaging of rat brains; type: in vivo; conditions: for cerebellar SUV at 15 min after radioligand injection: mean ± S.D.
T2 construct: from tissue; host or cells: brain of living Sprague-Dawley rats
Method: Six-week-old male Sprague-Dawley rats were purchased from Japan SLC (Shizuoka, Japan). PET scans were performed using a microPET Focus 220 small-animal scanner (Siemens Medical Solutions USA, Knoxville, TN). The rats were anesthetized with 1.5–2 % isoflurane during the imaging session, while their heart rate and blood oxygen saturation were monitored by pulse oximeter (CANL-425SVA; Med Associates, St. Albans, VT). Body temperature was kept at 37 °C with a heating pad (BWT-100; Bio Research Center, Aichi, Japan). Following the transmission scans for attenuation correction using a ^68Ge-^68Ga point source, emission scans were performed for 90 min in 3D list-mode with an energy window of 350–750 keV, immediately after the intravenous injection of each radioligand. Mean ± S.D. of the injected radioactivity of [^11C]TASP0410457, [^11C]TASP0434988, and [^11C]TASP0390136 was 119 ± 26 MBq, 132 ± 34 MBq, and 124 ± 17 MBq, respectively (n = 3–5). Mean ± S.D. of the mass doses of [^11C]TASP0410457, [^11C]TASP0434988, and [^11C]TASP0390136 was 2.4 ± 1.2 μg/kg, 1.9 ± 0.4 μg/kg, and 4.2 ± 1.6 μg/kg, respectively (n = 3–5).
To assess the specificity of radioligand binding, thioperamide was injected intravenously at a dose of 10 mg/kg at 30 s before the injection of each radioligand.
All list-mode data were sorted into 3D sinograms, which were then Fourier rebinned into 2D sinograms (frames: 1 min × 4, 2 min × 8 and 5 min × 14). Images were reconstructed using 2D-filtered back-projection with a 0.5-mm Hanning filter.
PET image and magnetic resonance imaging (MRI) template were co-registered using PMOD software (PMOD version 3.206; Zurich, Switzerland) according to the following procedure as in our previous works: Outline of the whole brain and positions of eyes in PET images at an early phase of the scan were initially matched to those in MRI images, and then further translations and rotations of PET images were manually performed for fine alignments. Finally, parameters for the co-registration were applied to the entire dynamic PET data. Regions of interest (ROIs) were placed on the striatum, hippocampus, and cerebellum using PMOD software with reference to the MRI template as described elsewhere. The tissue time-activity curves (TACs) for these ROIs were generated by calculating the SUV for each time frame as follows: SUV=radioactivityBq/g×bodyweightg/injectedradiotracerdoseBq
The binding potentials relative to the non-displaceable uptake (BPND) in the striatum and hippocampus were estimated using the simplified reference tissue model (SRTM) with PMOD software using the cerebellum as a reference region, as the rat cerebellum is devoid of H3R [26].

[2] = Radiochemical stability in the final formulation; type: physicochemical; conditions: at 40 min after the end of radiosynthesis
Method: [^11C]TASP0390136, [^11C]TASP0410457, and [^11C]TASP0434988 were synthesized as shown in Fig. 1a–c (detailed procedures are described in Additional file 1: Supplemental methods) using a homemade automated synthesis system. The radiochemical purities and specific activities of the radioligands, which were analyzed as described in Additional file 1: Supplemental Methods, along with their radiochemical yields and average synthesis times, are summarized in Table 1. Analytical HPLC chromatogram of each radioligand is shown in Additional file 2-4: Figures S1-S3. The radiochemical stabilities of [^11C]TASP0410457 and [^11C]TASP0434988 in the final formulation were >99 % at 1 h and 40 min, respectively, after the end of radiosynthesis.

central H3Rs = experiment: Receptor occupancy assay, [^11C]TASP0410457-PET, Lassen's plot; type: in vivo, monkey
Method: Occupancy of central H3Rs by ciproxifan, a selective antagonist/inverse agonist, was quantified by [^11C]TASP0410457-PET scans of an anesthetized monkey with arterial blood sampling. […] Receptor occupancy of ciproxifan was determined using Lassen’s plot without any reference regions using the following equation: VT^Baseline−VT^Ciproxifan=OccVT^Baseline−VND where VT^Baseline and VT^Ciproxifan are the regional VT values at baseline and in the ciproxifan challenge, respectively, VND is the non-displaceable distribution volume, and Occ is the occupancy.

[3] = thioperamide predosing 10 mg/kg
[4] = SRTM, cerebellum as reference region

T2 sequence (Q9QYN8 whole entry): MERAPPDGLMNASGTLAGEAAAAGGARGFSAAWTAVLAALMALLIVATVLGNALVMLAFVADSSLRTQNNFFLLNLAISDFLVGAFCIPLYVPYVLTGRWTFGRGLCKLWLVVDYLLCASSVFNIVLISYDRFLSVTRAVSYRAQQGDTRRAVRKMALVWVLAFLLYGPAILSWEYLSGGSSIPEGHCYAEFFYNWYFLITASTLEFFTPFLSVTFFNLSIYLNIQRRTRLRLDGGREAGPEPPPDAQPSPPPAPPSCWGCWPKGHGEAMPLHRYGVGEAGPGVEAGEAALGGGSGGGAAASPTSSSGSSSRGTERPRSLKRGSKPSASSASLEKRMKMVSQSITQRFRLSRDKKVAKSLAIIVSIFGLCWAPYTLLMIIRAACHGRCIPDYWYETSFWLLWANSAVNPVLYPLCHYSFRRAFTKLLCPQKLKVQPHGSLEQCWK
T1 sequence (Q9QYN8 whole entry): as above

Compound | IC50 (rat H3R) [nM] | Mean peak concentration in the forebrain expressed as SUV [1] [SUV] | cerebellar SUV at 15 min after radioligand injection (H3R; baseline) | cerebellar SUV at 15 min after radioligand injection (H3R; [3]) | further results
COc1ccc(N2C(=O)CCc3cc(OCCCN4CCC[C@H]4C)ccc32)c(OC)c1 [TASP0410427, 1-(2,4-dimethoxyphenyl)-6-{3-[(2R)-2-methylpyrrolidin-1-yl]propoxy}-3,4-dihydroquinolin-2(1H)-one] | < 3 | 0.10 |  |  | 
C[C@@H]1CCCN1CCCOc1ccc2c(c1)CCC(=O)N2c1ccc(O[11CH3])cc1 [[^11C]TASP0390136] |  |  | 0.33 ± 0.01 | 0.30 ± 0.03 | 
[11CH3]Oc1ccc(N2C(=O)CCc3cc(OC4CCN(C5CCC5)CC4)ccc32)cc1 [[^11C]TASP0434988] |  |  | 0.64 ± 0.04 | 0.59 ± 0.02 | striatal and hippocampal peak SUVs lower than those for [^11C]TASP0410457 (H3R): 20–25%; BPND, Hippocampus (H3R; [4]): 0.36 ± 0.11; BPND, Striatum (H3R; [4]): 0.92 ± 0.21; time for specific binding to reach a pseudo-equilibrium state (H3R; target-to-reference ratios, after intravenous injection): ≤ 15 min; radiochemical stability in the final formulation [2]: > 99%
O=C(c1ccc(OCCCc2cnc[nH]2)cc1)C1CC1 [ciproxifan, reference compound] |  |  |  |  | receptor occupancy (central H3Rs; 3 mg/kg intravenously, 10 min before [^11C]TASP0410457, anesthetized monkey, Lassen's plot): ~ 75%; adverse effects preventing completion of PET imaging (central H3Rs; 10 mg/kg, monkey, anesthetized with isoflurane): profound effects on heart rates and body motions

The next lines start with results.

IC50 (rat H3R) [nM] | Mean peak concentration in the forebrain expressed as SUV [1] [SUV] | cerebellar SUV at 15 min after radioligand injection (H3R; baseline) | cerebellar SUV at 15 min after radioligand injection (H3R; [3]) | Compound | further results
< 3 | 0.28 |  |  | COc1cccc(N2C(=O)CCc3cc(OCCCN4CCC[C@H]4C)ccc32)c1 [TASP0390174, 1-(3-methoxyphenyl)-6-{3-[(2R)-2-methylpyrrolidin-1-yl]propoxy}-3,4-dihydroquinolin-2(1H)-one] | 
< 3 | 0.30 |  |  | COc1cc(F)cc(N2C(=O)CCc3cc(OCCCN4CCC[C@H]4C)ccc32)c1 [TASP0410426, 1-(3-fluoro-5-methoxyphenyl)-6-{3-[(2R)-2-methylpyrrolidin-1-yl]propoxy}-3,4-dihydroquinolin-2(1H)-one] | 

Source: publication PMC4747952, “Development of TASP0410457 (TASP457), a novel dihydroquinolinone derivative as a PET radioligand for central histamine H3 receptors” (EJNMMI Research, 2016)
